Measurements as given in US6737383B1, “Herbicidal oxadiazolidines” (priority 1999, dated 2004).

Columns and labels:
[1] = test system: crabgrass; test: Test B pre/postemergence crabgrass; assay type: in vivo, Digitaria sanguinalis
In short: (§1)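 Test chemicals in a non-phytotoxic solvent mixture with surfactant were sprayed preemergence onto planted seeds and postemergence onto plants 2 to 18 cm tall (1- to 4-leaf stage). After twelve to sixteen days in a greenhouse, injury was visually rated against untreated controls from 0 (no effect) to 10 (complete control).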

[2] = test system: morningglory; test: Test B pre/postemergence morningglory; assay type: in vivo, Ipomoea hederacea
In short: as §1

[3] = test system: rice; test: Test B flood test rice; assay type: in vivo, Oryza sativa
In short: (§2)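 Each value is a visual injury score relative to controls, with 10 meaning complete control and 0 no effect. Evaluation took place twelve to sixteen days after the 2-leaf-stage plants were treated and kept in the greenhouse.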

[4] = test system: wheat; test: Test B pre/postemergence wheat; assay type: in vivo, Triticum aestivum
In short: as §1

[5] = test system: bamyardgrass; test: Test B flood test barnyardgrass; assay type: in vivo, Echinochloa crus-galli
In short: as §2

[6] = test system: velvetleaf; test: Test B pre/postemergence velvetleaf; assay type: in vivo, Abutilon theophrasti
In short: as §1

[7] = test system: pigweed; test: Test B pre/postemergence pigweed; assay type: in vivo, Amaranthus retroflexus
In short: as §1

[8] = test system: wild oat; test: Test B pre/postemergence wild oat; assay type: in vivo, Avena fatua
In short: as §1

[9] = test system: sugar beet; test: Test B pre/postemergence sugar beet; assay type: in vivo, Beta vulgaris
In short: as §1

[10] = test system: giant foxtail; test: Test B pre/postemergence giant foxtail; assay type: in vivo, Setaria faberii
In short: as §1

[11] = test system: soybean; test: Test B pre/postemergence soybean; assay type: in vivo, Glycine max
In short: as §1

[12] = test system: duck salad; test: Test B flood test duck salad; assay type: in vivo, Heteranthera limosa
In short: as §2

[13] = test system: cocklebur; test: Test B pre/postemergence cocklebur; assay type: in vivo, Xanthium strumarium
In short: as §1

[14] = test system: purple nutsedge; test: Test B pre/postemergence purple nutsedge; assay type: in vivo, Cyperus rotundus
In short: as §1

[15] = test system: rape; test: Test B pre/postemergence rape; assay type: in vivo, Brassica napus
In short: as §1

[16] = test system: corn; test: Test B pre/postemergence corn; assay type: in vivo, Zea mays
In short: as §1

[17] = Postemergence, Rate 62 g/ha, scale 0 to 10, 0 is no effect, 10 is complete control
[18] = Postemergence, Rate 250 g/ha, scale 0 to 10, 0 no effect, 10 complete control
[19] = Preemergence, Rate 62 g/ha, scale 0 to 10, 0 is no effect, 10 is complete control
[20] = Preemergence, Rate 125 g/ha, scale 0 to 10 (0 no effect, 10 complete control)
[21] = Preemergence, Rate 250 g/ha, scale of 0 to 10 where 0 is no effect and 10 is complete control
[22] = Preemergence, Rate 500 g/ha, scale 0 (no effect) to 10 (complete control)
[23] = Rate 125 g/ha, Postemergence, scale 0 to 10, 0 no effect, 10 complete control
[24] = Rate 500 g/ha, Postemergence, 0 to 10 scale (0 no effect, 10 complete control)
[25] = Rate 125 g/ha, Postemergence section (flood test species), scale 0 to 10, 0 no effect, 10 complete control
[26] = Rate 500 g/ha, Postemergence section of Table B, 0 to 10 scale (0 no effect, 10 complete control)
[27] = flood test, listed under Postemergence, Rate 250 g/ha, scale 0 to 10, 0 no effect, 10 complete control

In the case of `CCc1ccccc1-n1c(=O)on(C(=O)N(c2ccc(F)cc2F)C(C)C)c1=O` [Compound 45], the “Crabgrass plant response rating” value [1, 17] was 0, the “Crabgrass plant response rating” value [1, 18] was 2 and the “Plant response rating, Crabgrass” value [1, 19] was 0. For the same molecule, the “Plant response rating, Crabgrass” value [1, 20] was 1, the “Plant response rating, Crabgrass” value [1, 21] was 1 and the “Crabgrass plant response rating” value [1, 22] was 9. For the same molecule, the “Crabgrass plant response rating” value [1, 23] was 0, the “Crabgrass plant response rating” value [1, 24] was 3 and the “Morningglory plant response rating” value [2, 17] was 0. For the same molecule, the “Morningglory plant response rating” value [2, 18] was 0, the “Plant response rating, Morningglory” value [2, 19] was 0 and the “Plant response rating, Morningglory” value [2, 20] was 0. For the same molecule, the “Plant response rating, Morningglory” value [2, 21] was 0, the “Morningglory plant response rating” value [2, 22] was 0 and the “Morningglory plant response rating” value [2, 23] was 0. The “Morningglory plant response rating” value [2, 24] was 3, the “Rice plant response rating” value [3, 17] was 0 and the “Rice plant response rating” value [3, 25] was 0. The “Rice plant response rating” value [3, 26] was 0, the “Rice plant response rating” value [3, 27] was 0 and the “Wheat plant response rating” value [4, 17] was 0. The “Wheat plant response rating” value [4, 18] was 0, the “Plant response rating, Wheat” value [4, 19] was 0 and the “Plant response rating, Wheat” value [4, 20] was 0. For the same molecule, the “Plant response rating, Wheat” value [4, 21] was 0, the “Wheat plant response rating” value [4, 22] was 0 and the “Wheat plant response rating” value [4, 23] was 0. The “Barnyardgrass plant response rating” value [5, 17] was 0, the “Barnyardgrass plant response rating” value [5, 25] was 0 and the “Barnyardgrass plant response rating” value [5, 26] was 0. For the same molecule, the “Barnyardgrass plant response rating” value [5, 27] was 0, the “Velvetleaf plant response rating” value [6, 17] was 0 and the “Velvetleaf plant response rating” value [6, 18] was 0. The “Plant response rating, Velvetleaf” value [6, 19] was 0, the “Plant response rating, Velvetleaf” value [6, 20] was 0 and the “Plant response rating, Velvetleaf” value [6, 21] was 0. The “Velvetleaf plant response rating” value [6, 22] was 3, the “Velvetleaf plant response rating” value [6, 23] was 0 and the “Redroot pigweed plant response rating” value [7, 17] was 0. The “Redroot pigweed plant response rating” value [7, 18] was 0, the “Plant response rating, Redroot pigweed” value [7, 19] was 0 and the “Plant response rating, Redroot pigweed” value [7, 20] was 0. For the same molecule, the “Plant response rating, Redroot pigweed” value [7, 21] was 8, the “Redroot pigweed plant response rating” value [7, 22] was 8 and the “Redroot pigweed plant response rating” value [7, 23] was 0. The “Redroot pigweed plant response rating” value [7, 24] was 0, the “Wild oats plant response rating” value [8, 17] was 0 and the “Wild oats plant response rating” value [8, 18] was 0. The “Plant response rating, Wild oats” value [8, 20] was 0, the “Plant response rating, Wild oats” value [8, 21] was 0 and the “Wild oats plant response rating” value [8, 22] was 0. The “Wild oats plant response rating” value [8, 23] was 0, the “Sugarbeets plant response rating” value [9, 17] was 0 and the “Sugarbeets plant response rating” value [9, 18] was 1. For the same molecule, the “Plant response rating, Sugarbeets” value [9, 19] was 0, the “Plant response rating, Sugarbeets” value [9, 20] was 0 and the “Plant response rating, Sugarbeets” value [9, 21] was 7. For the same molecule, the “Sugarbeets plant response rating” value [9, 22] was 8, the “Sugarbeets plant response rating” value [9, 23] was 0 and the “Giant foxtail plant response rating” value [10, 17] was 0. For the same molecule, the “Giant foxtail plant response rating” value [10, 18] was 9, the “Plant response rating, Giant foxtail” value [10, 19] was 7 and the “Plant response rating, Giant foxtail” value [10, 20] was 10. For the same molecule, the “Plant response rating, Giant foxtail” value [10, 21] was 10, the “Giant foxtail plant response rating” value [10, 22] was 10 and the “Giant foxtail plant response rating” value [10, 23] was 0. The “Giant foxtail plant response rating” value [10, 24] was 9, the “Soybean plant response rating” value [11, 17] was 1 and the “Soybean plant response rating” value [11, 18] was 1. The “Plant response rating, Soybean” value [11, 19] was 0, the “Plant response rating, Soybean” value [11, 20] was 0 and the “Plant response rating, Soybean” value [11, 21] was 0. The “Soybean plant response rating” value [11, 22] was 3, the “Soybean plant response rating” value [11, 23] was 1 and the “Ducksalad plant response rating” value [12, 17] was 0. The “Ducksalad plant response rating” value [12, 25] was 0, the “Ducksalad plant response rating” value [12, 26] was 0 and the “Ducksalad plant response rating” value [12, 27] was 0. For the same molecule, the “Cocklebur plant response rating” value [13, 17] was 0, the “Cocklebur plant response rating” value [13, 18] was 2 and the “Plant response rating, Cocklebur” value [13, 19] was 0. For the same molecule, the “Plant response rating, Cocklebur” value [13, 20] was 0, the “Plant response rating, Cocklebur” value [13, 21] was 0 and the “Cocklebur plant response rating” value [13, 22] was 0. For the same molecule, the “Cocklebur plant response rating” value [13, 23] was 1, the “Cocklebur plant response rating” value [13, 24] was 5 and the “Nutsedge plant response rating” value [14, 17] was 0. The “Nutsedge plant response rating” value [14, 18] was 0, the “Plant response rating, Nutsedge” value [14, 19] was 0 and the “Plant response rating, Nutsedge” value [14, 20] was 0. For the same molecule, the “Plant response rating, Nutsedge” value [14, 21] was 0, the “Nutsedge plant response rating” value [14, 22] was 0 and the “Nutsedge plant response rating” value [14, 23] was 0. For the same molecule, the “Nutsedge plant response rating” value [14, 24] was 0, the “Rape plant response rating” value [15, 17] was 0 and the “Rape plant response rating” value [15, 18] was 0. The “Plant response rating, Rape” value [15, 19] was 0, the “Plant response rating, Rape” value [15, 20] was 0 and the “Plant response rating, Rape” value [15, 21] was 0. The “Rape plant response rating” value [15, 22] was 0, the “Rape plant response rating” value [15, 23] was 0 and the “Rape plant response rating” value [15, 24] was 0. For the same molecule, the “Corn plant response rating” value [16, 17] was 0, the “Corn plant response rating” value [16, 18] was 0 and the “Plant response rating, Corn” value [16, 19] was 0. For the same molecule, the “Plant response rating, Corn” value [16, 20] was 0, the “Plant response rating, Corn” value [16, 21] was 0 and the “Corn plant response rating” value [16, 22] was 1. The “Corn plant response rating” value [16, 23] was 0 and the “Corn plant response rating” value [16, 24] was 0.
